Laboratory results: patent US20080311126A1, “Antisense Oligonucleotides Directed to Ribonucleotide Reducatase R2 and Uses Thereof in Combination Therapies for the Treatment of Cancer” (Genesense Technologies, Inc, priority 2004, published 2008)
Oligonucleotides are written 5' to 3', each unit as a sugar letter and its base; * is a phosphorothioate linkage, no mark a phosphodiester; rarer units and linkages stand in square brackets, end groups in braces. Plain capitals give the bases only. d = 2'-deoxy (DNA)

Legend:
Experiment in all cases: Relative colony forming efficiency (Example 17, Table 13)
Assay type in all cases: cell-based, human
A549 lung cell carcinoma = details: averages of 2-8 determinations
Protocol: (§1) Colony forming efficiency was determined using standard protocols. […] The test oligonucleotides were added to cell cultures in the presence of 2.5 μg of DOTMA/DOPE (Lipofectin; Life Technologies, Inc.) for four hours. The oligonucleotide was tested at 0.2 μM unless otherwise indicated. Controls were the cultures treated with lipofectin but without the oligonucleotide. […] Surviving cells were visualized by methylene blue staining, and colonies were scored. In some experiments cell aliquots were removed from the culture and viability was determined using the trypan blue exclusion test. Results were analyzed as percent of surviving cells compared to control cells. To test the antisense effects of many of these sequences as phosphorthioate deoxyribonucleotides, they were examined in relative colony forming experiments conducted as described in Example 16 with a series of human tumour cell lines. The results (shown as % inhibition of colony forming ability) obtained with cancer cells derived from the bladder, breast, lung, colon, pancreas, prostate, liver and cervix, are shown in Table 13. The specific cell lines employed are as follows: […]

[1] = tested on: HCT116 colon cell carcinoma; details: averages of 2-8 determinations
Protocol: as §1

[2] = tested on: HepG2 hepatocellular carcinoma; details: averages of 2-8 determinations
Protocol: as §1

[3] = tested on: MDA PaCa-2 pancreatic cell carcinoma; details: MIA PaCa-2 pancreatic cell carcinoma; averages of 2-8 determinations
Protocol: as §1

[4] = tested on: PC-3 prostrate cell adenocarcinoma; details: averages of 2-8 determinations
Protocol: as §1

[5] = tested on: T24 bladder cell carcinoma; details: averages of 2-8 determinations
Protocol: as §1

Substance	Reduced relative colony forming efficiency, A549 (% inhibition of colony forming ability) (A549 lung cell carcinoma) [%]	Reduced relative colony forming efficiency, HCT116 (% inhibition of colony forming ability) [1] [%]	Reduced relative colony forming efficiency, HepG2 (% inhibition of colony forming ability) [2] [%]	Reduced relative colony forming efficiency, MIA PaCa-2 (% inhibition of colony forming ability) [3] [%]	Reduced relative colony forming efficiency, PC-3 (% inhibition of colony forming ability) [4] [%]	Reduced relative colony forming efficiency, T24 (% inhibition of colony forming ability) [5] [%]
ACTGCCATTGTCACTGCTAT (antisense dA*dC*dT*dG*dC*dC*dA*dT*dT*dG*dT*dC*dA*dC*dT*dG*dC*dT*dA*dT) [AS-II-1581-20]	90.55	66.85	93.07	24.07	85.83	68.22
AAGCGGCGGGGGTTTTCTCT (antisense dA*dA*dG*dC*dG*dG*dC*dG*dG*dG*dG*dG*dT*dT*dT*dT*dC*dT*dC*dT) [AS-II-414-20]	12.44	19.1	30.89	36.11	60.94	11.67
TCAGCATCCAAGGTAAAAGA (antisense dT*dC*dA*dG*dC*dA*dT*dC*dC*dA*dA*dG*dG*dT*dA*dA*dA*dA*dG*dA) [AS-II-1338-20]	63.93	74.73	80.41	79.17	93.75	63.16
ATGGTACTCGATGGGGAAGA (chemistry not given here) [AS-II-439-20]	76.46	64.7	73.04	92.69	77.66	67.84
AS-II-134220 (antisense dG*dA*dA*dG*dT*dC*dA*dG*dC*dA*dT*dC*dC*dA*dA*dG*dG*dT*dA*dA)	65.67	73.74	82.2	73.77	89.84	59.76
CCAGCACTATAAACAGACAG (antisense dC*dC*dA*dG*dC*dA*dC*dT*dA*dT*dA*dA*dA*dC*dA*dG*dA*dC*dA*dG) [AS-II-1517-20]					91.75	
GACGGCTGGGACAGGGTGCA (antisense dG*dA*dC*dG*dG*dC*dT*dG*dG*dG*dA*dC*dA*dG*dG*dG*dT*dG*dC*dA) [AS-II-134-20]					77.51	
GCATCCAAGGTAAAAGAATT (antisense dG*dC*dA*dT*dC*dC*dA*dA*dG*dG*dT*dA*dA*dA*dA*dG*dA*dA*dT*dT) [AS-II-1335-20]	78.59	67.87	72.98	78.78	90.04	59.95
TTGTGTACCAGGTGTTTGAA (antisense dT*dT*dG*dT*dG*dT*dA*dC*dC*dA*dG*dG*dT*dG*dT*dT*dT*dG*dA*dA) [AS-II-1023-20]	34.52			42.82	87.63	58.26
GCGGCGGGGGTTTTCTCTCA (antisense dG*dC*dG*dG*dC*dG*dG*dG*dG*dG*dT*dT*dT*dT*dC*dT*dC*dT*dC*dA) [AS-II-412-20]	43.78	27.98	26.23	55.25	73.96	22.2
